In patent publication US20060094790A1, “Use of sphingosine kinase activator as skin disease treating agent and method for treating skin diseases using the same” (priority 2004, published 2006):

Experiments:
fibroblasts = assay: Collagen synthesis in fibroblasts (PICP, collagen measuring kit); type: cell-based; conditions: 72 hours; for Amount of PICP produced in fibroblasts (average ± SEM): non-treated control 47.1 ± 9.7
Method: The following experiment was performed by using fibroblasts in order to evaluate the effect of sphingosine kinase activator upon collagen synthesis.
Each of K6PC4, K6PC-5, K6PC-7 and K6PC-9 was dissolved in DMSO at a concentration of 0.3 and 1.0 μg/ml. The solutions were used as samples and analyzed for collagen synthesis after incubation for 72 hours. 72 hours after the treatment of the sample, culture solution was discarded, cells were washed with serum-free DMEM three times, and cells were cultured again by using flesh serum-free DMEM. After incubation, supernatant in each well was combined and analyzed for the amount of PICP (procollagen type I C-peptide) by using a collagen measuring kit. The standard solution contained in the collagen measuring kit was diluted with a sample and absorption at 450 nm was measured to construct a standard concentration curve (see the following Table 2).
To an antibody-coated microtiter plate comprising a primary collagen antibody applied unifomrily thereto, 100 μl of an antibody-POD conjugate solution and the cell supernatant collected as described above were added, followed by incubation at 37° C. for 3 hours, to induce an antigen-antibody reaction. Then, the reaction mixture was subjected to washing and color developing. After the reaction, the reaction mixture developed a yellow color, wherein the yellowness depended on reaction degrees. Also, 96 well plates developing a yellow color were determined at 450 nm by using a microtiter plate reader.

rats = conditions: rat, in vivo
Method: (§1) Those tests were performed based on “Toxicity Test Standards for Pharmaceutical Products” disclosed by the Korea Food & Drug Administration.

human body = conditions: in vivo
Method: as §1

SD rat = assay: Inhibition of wrinkles and skin aging, UV-induced wrinkle model; type: in vivo
Method: Generally, continuous exposure to UV causes wrinkles and side effects such as sun burn and skin irritation, resulting in stimulation of skin aging.
To perform the evaluation, an SD rat with three wrinkles is irradiated with UVB under an intensity of 130 mJ/cm^2 at its rear leg […] for 6 weeks. Then, 10 μl (1% in 80% EtOH) of K6PC-5 was applied to the skin of rear leg right after each time of UV irradiation, UV irradiation being performed 5 times per week during 6 weeks from the start day of the UV irradiation. Nine weeks after the treatment, the rat was anesthetized with albutin and the wrinkles were photographed. Additionally, wrinkle-forming portions were replicated by using an exafine hydrophilic vinyl polysiloxane impression material. The replicated images were analyzed quantitively for shadow images by using an image analyzer.

keratinocytes = assay: Differentiation of keratinocytes (western blotting of involucrin and keratin-1); type: cell-based; conditions: 10 μM, 48 hours, FIG. 2
Method: In order to evaluate the effect of the above compound according to the present invention upon differentiation of keratinocytes, each of K6PC4, K6PC-5, K6PC-7 and K6PC-9 was dissolved in DMSO at a concentration of 10 μM and used as sample. Evaluation was performed by using the western blotting method. As differentiation markers, involucrin and keratine-1, which were differentiation markers of keratinocytes, were measured. Next, 48 hours after the treatment of samples, the culture solution was discarded and the cells were washed with PBS and collected by filtering. The collected cells were washed again and subjected to centrifugal separation to remove supernatant. The cells were dissolved in a solvent and subjected to centrifugal separation at 12,000 rpm for 10 minutes, thereby removing cell membranes, etc. Protein concentration was determined by the Bradford method. Proteins were separated by mini gel type SDS-PAGE (polyacrylamide gel electrohoresis) and transferred to a PVDF (polyvinylidene fluoride) membrane at 100V for 1 hour, so that gel-like proteins were subjected to blotting with a transfer membrane. Then, the membrane was colored with Ponceau S solution to determine whether transfer was accomplished or not. The membrane was blocked by using TTBS (TBS+0.1% Tween 20) solution containing 5% non-fat dried milk. In order to check the amount of involucrin as differentiation marker of keratinocytes, primary antibody involucrin (Neomarkers Co.) was diluted at a ratio of about 1/200 to 1.400, and keratin-1 (Covance Co.) was diluted at a ratio of about 1/1000. Reactions were performed overnight at 4° C. As secondary antibody, anti-mouse IgG and anti-rabbit IgG combined with horseradish peroxidase (HRP) was diluted at a ratio of 1:2000. Then, the secondary antibody was bonded to the primary antibody by making them react at room temperature for 1 hour. The membrane was washed with TTBS three times, reacted with an ECL substrate (Amersham Co.) for 1-3 minutes, and exposed to X-ray films.

hairless mouse = assay: Recovery of calcium gradient on epidermis, acute disruption model by tape stripping; type: in vivo; conditions: 1.0% in PEG:EtOH=7:3, after tape stripping, compared to control
Method: To determine the effect of recovering skin barrier effects obtained by the compound according to the present invention, the compound was evaluated for the effect of recovering a calcium ion gradient in the epidermis.
The calcium gradient in the epidermis plays very important role in maintaining homoeostasis of the skin barrier function. For example, when a hairless mouse is subjected to acute disruption on its back by tape stripping, the calcium ion gradient in the epidermis is lost. Therefore, it is possible to evaluate the effect of a test sample upon recovery of a damaged skin barrier by observing recovery of the calcium gradient loss in an acute disruption model.
In the following test, K6PC-5 according to the present invention was evaluated for the effect upon variations in calcium gradient in an acute disruption model.
Tissues non-treated with the sample were provided as control, and tissues were collected right after the tape striping, and 3, 6 and 24 hours after the tape stripping. Then, the tissues treated with K6PC-5 (1.0% in PEG:EtOH=7:3) were compared with controls, which are treated by calcium ion capture cell chemical dyeing. More particularly, each freshly collected tissue sample was fixed with a fixing solution comprising 2% glutaraldehyde, 2% formaldehyde, 90 mM potassium oxalate and 1.4% sucrose and refrigerated at 4° C. […]

With `CCCCCCCC(=O)C(CCCCCC)C(=O)NC(CO)CO` (stereo not drawn) [K6PC-5, N-(1,3-dihydroxyisopropyl)-2-hexyl-3-oxo-decanamide] the “Amount of PICP produced in fibroblasts (average ± SEM)” value (fibroblasts; 0.3 μg/ml) was 111.2 ± 3.9, the “Amount of PICP produced in fibroblasts (average ± SEM)” value (fibroblasts; 1.0 μg/ml) was 96.0 ± 5.6 and the “collagen synthesis increase as compared to the non-treated control” value (fibroblasts; fibroblasts, 0.3 or 1.0 μg/ml (concentration not given)) was “about 2.4 times”. The “Single dose oral toxicity test result” value (rats) was “No irritation”, the “Human body application test result” value (human body) was “No irritation” and the “inhibition of wrinkles compared to vehicle control” value (SD rat; 10 μl of 1% in 80% EtOH after each UVB irradiation (130 mJ/cm^2), 6 weeks, replica image analysis) was “about 63%”. The “erythema caused by UV compared to vehicle control” value (SD rat; 10 μl of 1% in 80% EtOH after each UVB irradiation, skin photograph FIG. 4b) was “decrease in erythema”, the “expression of differentiation markers (involucrin, keratin-1)” value (keratinocytes) was “expressed the differentiation markers” and the “recovery of calcium gradient in the epidermis” value (hairless mouse) was “began to be recovered, from 3 hours after the treatment, to form the normal calcium gradient rapidly”.
